Entries after “also recorded” stand apart in the source; their conditions may differ.
Assays:
[1] = tested on: Akt substrates FOXO1, FOXO3a, GSK3β, and mTOR; assay: phosphorylation of Akt substrates in mouse brain; type: in vivo; conditions: Het-MλKO mice, s.c. once daily for 8 days (ICAPP 0.4 mg/kg, ATM 60 mg/kg)
From the text: (§1) Mouse Studies. Brain samples were obtained from normal and insulin-resistant mice and monkeys used previously, and includes mice originally used in studies of insulin signaling and resistance in liver: (a) 4-6 month old C57Bl/6 mice used in studies of high-fat-feeding [USF Vivarium] [6]; 4-6 month-old male C57Bl/6 ob/ob and lean ob+ mice (Jackson Labs, Bar Harbor, Maine); and (c) 10-12 month-old C57Bl/6 Het-MλKO mice [USF Vivarium] [8]. […] Where indicated normal mice were given a single SC injection of saline or saline containing 1.5 mg/kg ICAPP to follow time-related alterations in brain signaling factors. Where indicated, mice were treated intraperitoneally (IP) with insulin (1 U/kg body weight) or vehicle 15-min before euthanization by administration of Xylazine/Ketamine, followed by whole body perfusion with phosphate-buffered saline and rapid removal of brain and other tissues.
(§2) Tissue Preparations. As described, mouse brains were hemisected sagittally, and one-half was frozen in liquid N2, stored at −80° C., and samples thereof were homogenized in buffer containing 0.25M sucrose, 20 mM Tris/HCl (pH, 7.5), 2 mmol/l EGTA, 2 mM EDTA, 1 mM phenlysulfonoylfluoride (PMSF), 20 μg/ml leupeptin, 10 μg/ml aprotinin, 2 mM Na4P2O7, 2 mM Na3VO4, 2 mM NaF, and 1 μM microcystin, and then supplemented with 1% TritonX-100, 0.6% Nonidet and 150 mM NaCl.
Western Analyses. […]

β-secretase (BACE1) = assay: brain β-secretase activity (BACE1) in mice; type: in vivo, mouse
From the text: Mouse Studies. Brain samples were obtained from normal and insulin-resistant mice and monkeys used previously, and includes mice originally used in studies of insulin signaling and resistance in liver: (a) 4-6 month old C57Bl/6 mice used in studies of high-fat-feeding [USF Vivarium] [6]; 4-6 month-old male C57Bl/6 ob/ob and lean ob+ mice (Jackson Labs, Bar Harbor, Maine); and (c) 10-12 month-old C57Bl/6 Het-MλKO mice [USF Vivarium] [8]. Males and females were comparably present in experimental groups, and sex didn't appreciably alter combined findings. Hepatic alterations, clinical characteristics and ameliorating effects of liver-selective aPKC inhibitors were reported previously. […] Where indicated, Het-MλKO were injected subcutaneously (SC) once daily for 8 days with saline or 1H-imidazole-4-carboxamide,5-amino]-(2,3-dihydroxy-4-[(phosphono-oxy)methyl]cyclopentane-[1R-(1a,2b,3b,4a)] (ICAPP) 0.4 mg/kg body weight) in saline, to inhibit hepatic aPKC, and thus diminish aPKC-dependent expression of hepatic gluconeogenic and lipogenic enzymes, and thereby reduce serum insulin levels to near-normal. Where indicated normal mice were given a single SC injection of saline or saline containing 1.5 mg/kg ICAPP to follow time-related alterations in brain signaling factors. Where indicated, mice were treated intraperitoneally (IP) with insulin (1 U/kg body weight) or vehicle 15-min before euthanization by administration of Xylazine/Ketamine, followed by whole body perfusion with phosphate-buffered saline and rapid removal of brain and other tissues.
as §2
β-Secretase Activity (BACE1; beta-site APP-cleaving enzyme-1). β-Secretase was measured was measured using a kit from Thermo-Fisher.

Aβ1-40/42 = assay: brain Aβ1-40/42 peptide levels in mice; type: in vivo, mouse
From the text: as §1, §2
Western Analyses. As described, Western analyses were conducted with rabbit antisera or mouse monoclonal antibodies (mMab), using: anti-aPKC (Santa Cruz Biotechnologies, Santa Cruz, CA); anti-phospho-threonine-560/555-PKC-ζ/λ/ι (Invitrogen, Carlsbad, CA); anti-p-serine-256-FoxO1 and anti-FoxO1 (Abnova, Walnut, CA); anti-Akt (mMab), anti-phospho-serine-473-Akt, anti-phospho-serine-9-GSK3P anti-GSK313, anti-phospho-serine-253-FoxO3a, anti-FoxO3a, anti-phospho-serine-256-FoxO1, anti-phospho-serine-193-FoxO4; anti-FoxO1, anti-phospho-serine-2448-mTOR, anti-mTOR, anti-β-amyloid (anti-5-10 kDa-Aβ1-40/42) and anti-amyloid precursor protein (anti-120 kDa-APP) (Cell Signaling Technologies, Danvers, MA); and anti-phospho-serine-202-tau, anti-phospho-threonine-231-tau (Gene Tex, Irvine, CA). Samples from experimental groups were compared on the same blots, and routinely checked with loading controls. Note that: insulin-sensitive 70 kDa aPKC is largely PKC-ζ in mouse brain and orthologous PKC-ι (98% aa homology) in monkey and other primate brains; brain PKC-ζ exists largely as a 50 kDa moiety that, lacking a regulatory domain, is constitutively-active and unresponsive to insulin.
Where indicated, mice were randomly treated with insulin (1 unit/kg/bw i.p.) 15 min before being euthanized by administration of xylazine/ketamine, followed by whole-body perfusion with PBS and rapid removal of brain and other tissues.

aPKC = target: T1, aPKC (Homo sapiens, UniProt P41743); parameters: endogenous in cells; conditions: previously seen, stated as similar; read-out: IC50, inhibition of aPKC activity in isolated human hepatocytes; cited from earlier work
T1 sequence (P41743 2-596): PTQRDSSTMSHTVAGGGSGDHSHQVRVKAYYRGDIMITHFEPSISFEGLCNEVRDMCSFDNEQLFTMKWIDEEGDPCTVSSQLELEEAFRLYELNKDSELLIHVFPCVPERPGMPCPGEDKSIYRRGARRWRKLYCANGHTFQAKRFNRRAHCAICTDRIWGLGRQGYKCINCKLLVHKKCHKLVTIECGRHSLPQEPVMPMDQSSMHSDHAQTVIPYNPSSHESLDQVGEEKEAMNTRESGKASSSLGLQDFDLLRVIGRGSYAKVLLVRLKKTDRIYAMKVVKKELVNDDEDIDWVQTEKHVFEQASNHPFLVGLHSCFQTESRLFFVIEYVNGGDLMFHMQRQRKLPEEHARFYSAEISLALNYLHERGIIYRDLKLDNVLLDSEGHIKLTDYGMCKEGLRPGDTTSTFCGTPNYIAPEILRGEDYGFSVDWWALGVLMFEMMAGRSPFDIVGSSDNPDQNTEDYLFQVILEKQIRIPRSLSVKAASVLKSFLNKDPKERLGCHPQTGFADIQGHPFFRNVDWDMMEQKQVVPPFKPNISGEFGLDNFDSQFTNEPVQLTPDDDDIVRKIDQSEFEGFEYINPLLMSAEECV

[2] = normal mice, single s.c. dose of ICAPP 1.5 mg/kg, insulin 1 U/kg i.p. 15 min before killing

NC(=O)c1ncn([C@@H]2C[C@H](COP(=O)(O)O)[C@@H](O)[C@H]2O)c1N [ICAPP]
resting/basal phosphorylation of Akt substrates in brain [1]: diminished
acute insulin-stimulated phosphorylation of Akt substrates in brain ([1]; insulin 1 U/kg i.p. 15 min): restored ability of insulin; also recorded: fully able
resting/basal brain β-secretase activity (β-secretase (BACE1); Het-MλKO mice, ICAPP 0.4 mg/kg s.c. once daily for 8 days): reduced resting/basal β-secretase activity to near-normal levels
acute insulin-stimulated increases in brain β-secretase activity (β-secretase (BACE1); Het-MλKO mice, ICAPP 0.4 mg/kg s.c. once daily for 8 days, insulin 1 U/kg i.p. 15 min): fully blocked
insulin-dependent brain β-secretase activity (β-secretase (BACE1); [2]): time-related, well-correlated decreases; also recorded: blocked acute effects of insulin
resting/basal brain Aβ1-40/42 peptide levels (Aβ1-40/42; Het-MλKO mice, s.c. once daily for 8 days (ICAPP 0.4 mg/kg, ATM 60 mg/kg)): returned to normal
acute insulin-induced increase in brain Aβ1-40/42 levels (Aβ1-40/42; Het-MλKO mice, s.c. once daily for 8 days (ICAPP 0.4 mg/kg, ATM 60 mg/kg), insulin 1 U/kg i.p. 15 min): comparable loss in the ability of insulin to acutely increase Aβ1-40/42 levels; also recorded: abrogated
insulin-dependent brain Aβ1-40/42 peptide levels (Aβ1-40/42; [2]): time-related, well-correlated decreases; also recorded: blocked acute effects of insulin
IC50 (aPKC): 1 to 10 nM
